From ChEMBL document CHEMBL4219064, “Identification of novel quinazolinedione derivatives as RORγt inverse agonist” (Bioorg Med Chem, 2018) come the findings set out here.

A short description of series [1]: Kinetic solubility of the compound in second fluid of disintegration test of the Japanese Pharmacopoeia at pH 6.8 by HPLC analysis.
Series [2] in a line: Lipophilicity, log D of the compound at pH 7.4. Type of series: physicochemical. The settings on record: buffer.
A short description of series [3]: AUC in rat at 1 mg/kg, po. Type of series: ADME, organism-based. The settings on record: in vivo.
The nature of series [4]: Oral bioavailability in rat at 1 mg/kg. Format: ADME, organism-based. The settings on record: in vivo.
Series [5] is described as follows: Clearance in rat at 1 mg/kg, po or 0.1 mg/kg, iv. Format: ADME, organism-based. The following applies: in vivo.
The nature of series [6]: tissue or blood. The following applies: Rattus norvegicus, Lewis.
Description: Inverse agonist activity at RORgammat in Lewis rat whole blood assessed as inhibition of IL-17A production incubated for 1 hr followed by PMA/ionomycin stimulation measured after 24 hrs by ELISA
Series [7] deals with Rattus norvegicus. In words: In vivo inverse agonist activity at RORgammat in po dosed Lewis rat experimental autoimmune encephalomyelitis model assessed as inhibition of IL-17A mRNA levels in popliteal lymph nodes administered twice daily for 5 days by qRT-PCR analysis. Format: functional. The following applies: 120 h, read-out: MED.
Series [8] has as its target T1, Nuclear receptor ROR-gamma (Homo sapiens, UniProt P51449).
T1 sequence (P51449 whole entry): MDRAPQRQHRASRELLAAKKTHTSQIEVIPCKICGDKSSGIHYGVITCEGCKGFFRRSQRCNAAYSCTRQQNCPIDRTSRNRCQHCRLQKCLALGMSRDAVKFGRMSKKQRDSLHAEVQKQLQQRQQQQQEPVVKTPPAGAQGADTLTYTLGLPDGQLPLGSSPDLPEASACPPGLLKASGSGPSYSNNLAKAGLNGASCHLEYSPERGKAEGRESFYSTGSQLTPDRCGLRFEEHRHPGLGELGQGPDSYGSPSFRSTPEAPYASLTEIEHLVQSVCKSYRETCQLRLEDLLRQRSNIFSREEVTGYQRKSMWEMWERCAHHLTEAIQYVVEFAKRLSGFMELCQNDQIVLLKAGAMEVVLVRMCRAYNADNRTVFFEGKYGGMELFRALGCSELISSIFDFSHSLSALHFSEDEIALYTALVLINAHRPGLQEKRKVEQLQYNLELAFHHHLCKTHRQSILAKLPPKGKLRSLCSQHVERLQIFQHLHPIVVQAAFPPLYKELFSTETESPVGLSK
Briefly: Displacement of BODIPY-labeled-(R)-N-(2-(3,5-difluoro-4-(trimethylsilyl)phenylamino)-1-(4-(methoxymethyl)phenyl)-2-oxoethyl)-5-(2-((1-(difluoroboryl)-3,5-dimethyl-1H-pyrrol-2-yl)methylene)-2H-pyrrol-5-yl)pentanamide from human His-tagged RORgammat after 20 mins by TR-FRET assay.

Series [9] addresses T1, Nuclear receptor ROR-gamma. Briefly: Inverse agonist activity at RORgammat (unknown origin) expressed in human Jurkat cells assessed as inhibition of transcriptional activity after overnight incubation by human IL-17 ROR response element driven-bright-glo luciferase reporter gene assay. Format: cell-based.

Values after ≈ are worked out from the molar mass of the structure shown.

For orientation: kinetic solubility means the concentration staying in solution when a stock, usually in DMSO, is diluted into the medium. Take `CCn1ccc2cc(NC(=O)CC(C)CC(=O)Nc3ccc(C#N)c(Cl)c3)ccc21` (racemic): the solubility (kinetic) in series [1] worked out at 0.1 µg/mL (≈ 0.236 µM).
As a reminder, the logD is the decadic logarithm of the distribution of all forms, ionised or not, between an organic phase and buffer at a given pH. For the compound `CCn1c2ccccc2c2cc(NC(=O)CC(C)CC(=O)Nc3ccc(C#N)c(Cl)c3)ccc21` (racemic), the solubility (kinetic) in series [1] turned out to be 0.15 µg/mL (≈ 0.317 µM). This compound also displayed a logD in series [2] of 3.76.
Regarding `CCN1C(=O)C(C)Oc2cc(NC(=O)CC(C)CC(=O)Nc3ccc(C#N)c(Cl)c3)ccc21` (racemic), the solubility (kinetic) in series [1] stood at 23 µg/mL (≈ 49 µM). In addition, the logD in series [2] turned out to be 2.66.
What is called AUC is the area under the concentration-time curve, a measure of exposure. Read a high AUC as more exposure. For orientation: bioavailability means dose-corrected exposure relative to a reference, in per cent. A higher bioavailability goes with good availability. As for `CCn1c(=O)n(CC2CC2)c(=O)c2cc(NC(=O)CC(C)CC(=O)Nc3ccc(C#N)c(Cl)c3)ccc21` (racemic), the AUC in series [3] amounted to 10 ng·h/mL. For the same compound, the bioavailability in series [4] was determined as 2.7%. The clearance in series [5] is 44 mL/min/kg.
As for `CCC1Oc2cc(NC(=O)CC(C)CC(=O)Nc3ccc(C#N)c(Cl)c3)ccc2N(CC)C1=O` (racemic), the solubility (kinetic) in series [1] was 5.6 µg/mL (≈ 11.6 µM).
In turn, `CCn1c(=O)c2cc(NC(=O)CC(C)CC(=O)Nc3ccc(C#N)c(Cl)c3)ccc2n(CC)c1=O` (racemic) displayed an area under the curve (AUC) in [3] of 39 ng·h/mL. The bioavailability in series [4] worked out at 6.2%. In [1], the kinetic solubility turned out to be 42 µg/mL (≈ 84.7 µM). Further, in [5], the clearance was 26.8 mL/min/kg. Besides, the logD in [2] was 2.99.
Take `CC(CC(=O)Nc1ccc(C#N)cc1)CC(=O)Nc1ccc2[nH]c3c(c2c1)CCCC3` (racemic): the kinetic solubility in [1] came out at 0.19 µg/mL (≈ 0.458 µM).
Turning to `CCN1C(=O)COc2cc(NC(=O)CC(C)CC(=O)Nc3ccc(C#N)c(Cl)c3)ccc21` (racemic), the kinetic solubility in series [1] stood at 12 µg/mL (≈ 26.4 µM).
With `CCn1c2c(c3cc(NC(=O)CC(C)CC(=O)Nc4ccc(C#N)cc4)ccc31)CCCC2` (racemic), the kinetic solubility in [1] came out at 0.06 µg/mL (≈ 0.136 µM). This solubility kinetic is about 200-fold lower than that of the compound before.
Usually IC50 stands for the midpoint of a concentration-inhibition curve. In series [6], `CC(CC(=O)Nc1ccc(C#N)c(Cl)c1)CC(=O)Nc1ccc2c(c1)c(=O)n(CC1CC1)c(=O)n2CC1CC1` (racemic) registered an IC50 of 0.057 µM. Also, the AUC in series [3] is 106 ng·h/mL. In [4], this compound registered a bioavailability of 7.1%. The compound also gave a clearance in series [5] of 11.2 mL/min/kg. In addition, the minimal effective dose in series [7] worked out at 100 mg/kg.
Turning to `CCn1c(=O)c2cc(NC(=O)CC(C)CC(=O)Nc3ccc(C#N)c(Cl)c3)ccc2n(CC2CC2)c1=O` (racemic), the AUC in [3] is 33 ng·h/mL. This compound also registered a bioavailability in series [4] of 5.5%. Further, the clearance in series [5] is 28.4 mL/min/kg.
Regarding `CCn1c2ccccc2c2cc(NC(=O)CC(C)CC(=O)Nc3ccccc3C#N)ccc21` (racemic), the IC50 in [8] was greater than 10 µM; in series [9], greater than 30 µM.
Turning to `CCn1c(=O)oc2cc(NC(=O)CC(C)CC(=O)Nc3ccc(C#N)c(Cl)c3)ccc21` (racemic), in series [1], the solubility (kinetic) worked out at 0.9 µg/mL (≈ 2.04 µM).
